Test results from patent US7109160B1, “Peptides containing the motif IGD and their use as cell migration modulators” (University of Dundee, priority 1997, dated 2006).
Entries after “also recorded” stand apart in the source; their conditions may differ.

Experiments:
[1] = system: human skin fibroblasts (SK319 and FSF44); assay: Native collagen gel migration assay; format: cell-based
Procedure: Assays were performed as described in Materials and Methods in Example 1. Results are normalised by expressing them as “relative stimulation” of migration, this being calculated by dividing the percentage of cells in the gel matrix for each experimental point by the control value obtained in that particular experiment. Data are presented as the mean ±SD of five experiments. For clarity, the shaded area indicates the spread of standard deviations for data points not plotted with error bars. Upper panel: results obtained with the indicated synthetic peptides. Lower panel: results obtained with native fibronectin (FN), and its cell-binding (Cell-BD) and gelatin-binding (Gel-BD) domains.
(§1) Cells. Experiments were performed with two lines of human skin fibroblasts (SK319 and FSF44, between passage 10–18) shown to be free of mycoplasmal contamination by staining with Hoechst 33256. Identical results were obtained with both lines and these cells are consequently not individually identified in the Figures. Stock cultures were maintained in Eagle's Minimal Essential (MEM), as previously described^7.
(§2) Migration Assays. In the collagen gel assay, pre-formed 2 ml gels were overlaid with 1 ml of serum-free MEM (controls) or serum-free MEM containing the requisite concentration of effector molecule to give the desired final concentration. Trypsinised fibroblasts were suspended in serum-free MEM to give an inoculum containing 2×10^5 cells/ml and 1 ml of this was plated onto replicate control and test gels.

[2] = system: human skin fibroblasts (SK319 and FSF44); assay: Transmembrane migration assay (membranes coated with native type I collagen or gelatin); format: cell-based; details: FIG. 2
Procedure: Assays were performed as described in Materials and Methods in Example 1. Results from five experiments are presented as mean ±SD. Shaded area indicates the spread of standard deviations for data points not plotted with error bars. Panel A: results obtained with IGDS (SEQ ID NO 2) and the gelatin-binding domain (Gel-BD) on membranes coated with native collagen and gelatin. Panel B: results obtained with RGDS (SEQ ID NO 6), native fibronectin (FN), and its cell-binding domain (Cell-BD).
as §1
Polycarbonate membranes used in the transmembrane assay were immersed in an aqueous solution containing 10 μg/ml of either native type I collagen or heat-denatured type I collagen (gelatin) overnight at 37° C. and then air-dried. Assays were performed as previously described^7.

[3] = system: chick yolk sac membrane; assay: Chick yolk sac membrane angiogenesis assay; format: in vivo; details: for Positive responses (%) / Positive responses (positive/total): assessed after 24 hr
Source text: Dried methylcellulose pellets containing the test samples and control pellets (lacking the test samples) were placed on the yolk sac membrane of 6-day chick embryos, as described in Materials and Methods in Example 1. The elicited reaction was checked after six hours and assessed after 24 hr by observation of living embryos with a stereomicroscope. […] After assessment at 24 hr, selected membranes were fixed in 2.5% EM grade glutaraldehyde in 0.2 M phosphate buffer, pH 7.4. These preparations were then stained with 1% toluidine blue and photographed using a Leica DM LB microscope. […] Bar=250 μm.
Chick yolk sac membrane angiogenesis assay. The assay was performed essentially as described by Gush et al (1990) J. Med. Engineer. Tech. 14, 205–209. Accordingly, four-day-old fertilised eggs were cracked in a tumbler, covered with a Petri dish and incubated at 37° C. Two days later dried methylcellulose pellets containing the test samples and control pellets (lacking the test samples) were placed on the yolk sac membrane. The elicited angiogenic reaction was assessed after 24 hr by observation of living embryos with a stereomicroscope. Selected membranes were fixed in 2.5% EM grade glutaraldehyde in 0.2 M phosphate buffer (pH 7.4), dissected, stained with 1% toluidine blue and mounted on glass slides for photomicroscopy.

[4] = system: rat wound healing model; assay: Rat wound healing model (subcutaneous porcine dermal collagen film implants); format: in vivo; details: 1 μg/ml in collagen film, implanted subcutaneously, 28 days, p < 0.01
Source text: In this experimental system, 1 cm^2 pieces of porcine dermal collagen films impregnated with either control medium or medium containing the indicated concentration of test substance were implanted subcutaneously into rats. The animals were sacrificed 28 days later and the removed collagen implants fixed and sectioned for image analysis.

[5] = system: human skin fibroblasts (SK319 and FSF44); assay: Collagen gel assay with combinations of peptides (co-incubation); format: cell-based; details: FIG. 3A
Procedure: The collagen gel assay was performed in the presence of various combinations of the indicated peptides and the percentage of cells present within the gel matrix measured after a four-day incubation period. Data are expressed as mean ±SD obtained in three experiments. Panel A: combinations of the gelatin-binding domain (Gel-BD) and IGDS (SEQ ID NO 2); Panel B: combinations of IGDS (SEQ ID NO 2) and RGDS (SEQ ID NO 6); Panel C: combinations of IGDS (SEQ ID NO 2) and the cell-binding domain (Cell-BD).
as §2
The possible mechanistic relationship between IGDS (SEQ ID NO 2) and the gelatin-binding domain in which it is contained was further examined by co-incubating cells with suboptimal concentrations of each.
Possible mechanistic interactions between IGDS (SEQ ID NO 2) and RGDS (SEQ ID NO 6) were studied in similar co-incubation experiments.

[6] = system: human skin fibroblasts (SK319 and FSF44); assay: Pre-incubation of cells with IGDS, subsequent migration in native collagen gel assay; format: cell-based
Procedure: Confluent cells on plastic tissue culture dishes were washed 3× with serum-free MEM (SF-MEM) and then incubated for various times with the indicated concentrations of IGDS (SEQ ID NO 2) in SF-MEM. They were then trypsinised and washed extensively by repeated (5×) cycles of centrifugation and resuspension in SF-MEM. The behaviour of these pre-incubated cells was assessed in the collagen gel assay in the absence of further IGDS (SEQ ID NO 2)(indicated as IGDS (SEQ ID NO 2) not in assay). […] Data were obtained from three experiments and are expressed as mean ±SD.
as §2

In the case of “Ile-Gly-Asp-Ser (IGDS; listed as Homo sapiens)”, the “concentration at which significant bioactivity (migration stimulation) is first manifest” value ([1]; collagen gel assay, FIG. 1A) is reported as 0.1 µM, the shape of dose-response ([1]; collagen gel assay, FIG. 1A) is reported as “bell-shaped dose-response” and the “effect on cell migration into native type I collagen gels” value ([1]; human dermal fibroblasts, 4-day incubation, FIG. 1) is reported as “stimulated cell migration”. The “effect on cell migration through gelatin-coated membranes” value ([2]; gelatin (heat-denatured type I collagen)-coated membranes) was “devoid of activity”, the “effect on cell migration through membranes coated with native collagen” value ([2]; native type I collagen-coated membranes) was “stimulated cell migration” and the “Positive responses (%)” value ([3]; 5 ng/pellet) was “(50) %”. The “Positive responses (positive/total)” value ([3]; 5 ng/pellet) was 3/6, the “Positive responses (%)” value ([3]; 50 ng/pellet) was “(64) %” and the “Positive responses (positive/total)” value ([3]; 50 ng/pellet) was 7/11. The “Positive responses (%)” value ([3]; 250 ng/pellet) was “(77) %”, the “Positive responses (positive/total)” value ([3]; 250 ng/pellet) was 10/13 and the “Positive responses (%)” value ([3]; 1000 ng/pellet) was “(64) %”. For the same substance, the “Positive responses (positive/total)” value ([3]; 1000 ng/pellet) was 9/14, the “Positive responses (%)” value ([3]; 3000 ng/pellet) was “(78) %” and the “Positive responses (positive/total)” value ([3]; 3000 ng/pellet) was 7/9. The “angiogenic response in the chick yolk sac membrane, in words” value ([3]; in vivo) was “elicited an angiogenic response; also recorded: stimulates angiogenesis”, the “angiogenic response elicited by pellet” value ([3]; pellet containing 1.0 μg, 6-day chick embryos, 24 hr, FIG. 7) was “positive angiogenic response” and the “Fibroblasts (% field)” value ([4]; control 8.3 ± 6.7) was 18.2 ± 9.4 % field. The “Vessels (per field)” value ([4]; control 15.3 ± 5.5) was 26.7 ± 6.4 per field, the “activity on cell migration when present on its own” value ([5]; 0.01 μM (10^7 fM)) was “inactive” and the “effect upon cell migration of co-incubation with the gelatin-binding domain” value ([5]; suboptimal concentrations of each) was “additive effect”. The “persistence of effect on cell migration after pre-incubation” value ([6]; assayed in absence of further IGDS, dependent on pre-incubation time and peptide concentration, FIG. 4) was “persistent” and the “elevated migratory behaviour still manifest following passages in vitro” value ([6]; pre-incubated cells, data not shown) was 1–2 passages.
